Measured values reported in ChEMBL document CHEMBL1201862, “PubChem BioAssay data set” (2004).
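Five compound concentrations were applied to cells in 96-well plates for 48 hours; endpoints were derived by simple linear interpolation of the resulting dose-response curve. Abbreviation: GI50, concentration required for 50% inhibition of growth.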 Active and inactive are the calls of the source. Cut-off read from the data, not from the text of the source: active = GI50 up to about 1.1 µM and inactive = higher.

What was measured:
Assay in all cases: DTP human tumour cell line panel, 48 h
BT-549 = tested on: BT-549
KM12 = tested on: KM12
SW-620 = tested on: SW-620
786-0 = tested on: 786-0
M14 = tested on: M14
NCI-H522 = tested on: NCI-H522
HOP-92 = tested on: HOP-92
ACHN = tested on: ACHN
SF-539 = tested on: SF-539
HOP-62 = tested on: HOP-62
NCI-H226 = tested on: NCI-H226
MDA-MB-435 = tested on: MDA-MB-435
IGROV-1 = tested on: IGROV-1
U-251 = tested on: U-251
MOLT-4 = tested on: MOLT-4
SK-MEL-28 = tested on: SK-MEL-28
UACC-62 = tested on: UACC-62
NCI-H460 = tested on: NCI-H460
DU-145 = tested on: DU-145
SNB-75 = tested on: SNB-75
RPMI-8226 = tested on: RPMI-8226
HT-29 = tested on: HT-29
HCT-116 = tested on: HCT-116
SNB-19 = tested on: SNB-19
A549 = tested on: A549
UACC-257 = tested on: UACC-257
T47D = tested on: T47D
SR = tested on: SR
COLO 205 = tested on: COLO 205
NCI-H23 = tested on: NCI-H23
CAKI-1 = tested on: CAKI-1
SF-295 = tested on: SF-295
SK-MEL-5 = tested on: SK-MEL-5
OVCAR-5 = tested on: OVCAR-5
Hs-578T = tested on: Hs-578T
HCC 2998 = tested on: HCC 2998
CCRF-CEM = tested on: CCRF-CEM
K562 = tested on: K562
MDA-N = tested on: MDA-N
NCI/ADR-RES = tested on: NCI/ADR-RES
SN12C = tested on: SN12C
OVCAR-4 = tested on: OVCAR-4
SF-268 = tested on: SF-268
OVCAR-8 = tested on: OVCAR-8
UO-31 = tested on: UO-31
PC-3 = tested on: PC-3
HL-60 = tested on: HL-60
EKVX = tested on: EKVX
Malme-3M = tested on: Malme-3M
MCF7 = tested on: MCF7
MDA-MB-231 = tested on: MDA-MB-231
OVCAR-3 = tested on: OVCAR-3
LOX IMVI = tested on: LOX IMVI
TK-10 = tested on: TK-10
RXF 393 = tested on: RXF 393
A498 = tested on: A498
SK-OV-3 = tested on: SK-OV-3
SK-MEL-2 = tested on: SK-MEL-2
HCT-15 = tested on: HCT-15

c1ccc(C2=NCCN2)c(C2=NCCN2)c1
GI50 (BT-549): > 100 µM (inactive)
GI50 (KM12): > 100 µM (inactive)
GI50 (SW-620): > 100 µM (inactive)
GI50 (786-0): > 100 µM (inactive)
GI50 (M14): > 100 µM (inactive)
GI50 (NCI-H522): > 100 µM (inactive)
GI50 (HOP-92): > 100 µM (inactive)
GI50 (ACHN): > 100 µM (inactive)
GI50 (SF-539): > 100 µM (inactive)
GI50 (HOP-62): > 100 µM (inactive)
GI50 (NCI-H226): > 100 µM (inactive)
GI50 (MDA-MB-435): > 100 µM (inactive)
GI50 (IGROV-1): > 100 µM (inactive)
GI50 (U-251): > 100 µM (inactive)
GI50 (MOLT-4): > 100 µM (inactive)
GI50 (SK-MEL-28): > 100 µM (inactive)
GI50 (UACC-62): > 100 µM (inactive)
GI50 (NCI-H460): > 100 µM (inactive)
GI50 (DU-145): > 100 µM (inactive)
GI50 (SNB-75): > 100 µM (inactive)
GI50 (RPMI-8226): > 100 µM (inactive)
GI50 (HT-29): > 100 µM (inactive)
GI50 (HCT-116): > 100 µM (inactive)
GI50 (SNB-19): > 100 µM (inactive)
GI50 (A549): > 100 µM (inactive)
GI50 (UACC-257): > 100 µM (inactive)
GI50 (T47D): > 100 µM (inactive)
GI50 (SR): > 100 µM (inactive)
GI50 (COLO 205): > 100 µM (inactive)
GI50 (NCI-H23): > 100 µM (inactive)
GI50 (CAKI-1): > 100 µM (inactive)
GI50 (SF-295): > 100 µM (inactive)
GI50 (SK-MEL-5): > 100 µM (inactive)
GI50 (OVCAR-5): > 100 µM (inactive)
GI50 (Hs-578T): > 100 µM (inactive)
GI50 (HCC 2998): 57.3 µM (inactive)
GI50 (CCRF-CEM): > 100 µM (inactive)
GI50 (K562): > 100 µM (inactive)
GI50 (MDA-N): > 100 µM (inactive)
GI50 (NCI/ADR-RES): > 100 µM (inactive)
GI50 (SN12C): > 100 µM (inactive)
GI50 (OVCAR-4): > 100 µM (inactive)
GI50 (SF-268): > 100 µM (inactive)
GI50 (OVCAR-8): > 100 µM (inactive)
GI50 (UO-31): > 100 µM (inactive)
GI50 (PC-3): > 100 µM (inactive)
GI50 (HL-60): > 100 µM (inactive)
GI50 (EKVX): > 100 µM (inactive)
GI50 (Malme-3M): > 100 µM (inactive)
GI50 (MCF7): > 100 µM (inactive)
GI50 (MDA-MB-231): > 100 µM (inactive)
GI50 (OVCAR-3): > 100 µM (inactive)
GI50 (LOX IMVI): > 100 µM (inactive)
GI50 (TK-10): > 100 µM (inactive)
GI50 (RXF 393): > 100 µM (inactive)
GI50 (A498): > 100 µM (inactive)
GI50 (SK-OV-3): > 100 µM (inactive)
GI50 (SK-MEL-2): > 100 µM (inactive)
GI50 (HCT-15): 44.1 µM

Cn1c(=O)c2c(nc(N)n2C2OC(CO)C(O)C2O)n(C)c1=O (configuration not stated)
GI50 (BT-549): > 100 µM (inactive)
GI50 (KM12): > 100 µM (inactive)
GI50 (SW-620): > 100 µM (inactive)
GI50 (786-0): > 100 µM (inactive)
GI50 (M14): > 100 µM (inactive)
GI50 (NCI-H522): > 100 µM (inactive)
GI50 (HOP-92): 61.9 µM (inactive)
GI50 (ACHN): > 100 µM (inactive)
GI50 (SF-539): > 100 µM (inactive)
GI50 (HOP-62): > 100 µM (inactive)
GI50 (NCI-H226): > 100 µM (inactive)
GI50 (MDA-MB-435): > 100 µM (inactive)
GI50 (IGROV-1): > 100 µM (inactive)
GI50 (U-251): > 100 µM (inactive)
GI50 (MOLT-4): > 100 µM (inactive)
GI50 (SK-MEL-28): > 100 µM (inactive)
GI50 (UACC-62): > 100 µM (inactive)
GI50 (NCI-H460): > 100 µM (inactive)
GI50 (DU-145): > 100 µM (inactive)
GI50 (SNB-75): > 100 µM (inactive)
GI50 (RPMI-8226): > 100 µM (inactive)
GI50 (HT-29): > 100 µM (inactive)
GI50 (HCT-116): > 100 µM (inactive)
GI50 (SNB-19): > 100 µM (inactive)
GI50 (A549): > 100 µM (inactive)
GI50 (UACC-257): > 100 µM (inactive)
GI50 (T47D): > 100 µM (inactive)
GI50 (SR): > 100 µM (inactive)
GI50 (COLO 205): > 100 µM (inactive)
GI50 (NCI-H23): > 100 µM (inactive)
GI50 (CAKI-1): > 100 µM (inactive)
GI50 (SF-295): > 100 µM (inactive)
GI50 (SK-MEL-5): > 100 µM (inactive)
GI50 (OVCAR-5): > 100 µM (inactive)
GI50 (Hs-578T): > 100 µM (inactive)
GI50 (HCC 2998): > 100 µM (inactive)
GI50 (CCRF-CEM): > 100 µM (inactive)
GI50 (K562): > 100 µM (inactive)
GI50 (MDA-N): > 100 µM (inactive)
GI50 (NCI/ADR-RES): > 100 µM (inactive)
GI50 (SN12C): > 100 µM (inactive)
GI50 (OVCAR-4): > 100 µM (inactive)
GI50 (SF-268): > 100 µM (inactive)
GI50 (OVCAR-8): > 100 µM (inactive)
GI50 (UO-31): > 100 µM (inactive)
GI50 (PC-3): > 100 µM (inactive)
GI50 (HL-60): > 100 µM (inactive)
GI50 (EKVX): > 100 µM (inactive)
GI50 (Malme-3M): > 100 µM (inactive)
GI50 (MCF7): > 100 µM (inactive)
GI50 (MDA-MB-231): > 100 µM (inactive)
GI50 (OVCAR-3): > 100 µM (inactive)
GI50 (LOX IMVI): > 100 µM (inactive)
GI50 (TK-10): > 100 µM (inactive)
GI50 (RXF 393): > 100 µM (inactive)
GI50 (A498): > 100 µM (inactive)
GI50 (SK-OV-3): > 100 µM (inactive)
GI50 (HCT-15): > 100 µM
